The results in this text go back to patent publication US10640457B2, “Histone acetyltransferase activators and uses thereof” (The Trustees of Columbia University in the City of New York, priority 2009, dated 2020).

Where “and” joins values, the source holds several entries; their conditions need not be identical. Identical values can stand only once. Entries after “also recorded” stand apart in the source; their conditions may differ. Some results are limits rather than exact numbers.

The test system of assay [1] is hippocampal slices from APP/PS1 mice. Briefly: CA1 LTP in hippocampal slices of APP/PS1 and WT mice (TSA). Here is the method: At this age the Tg mice just start showing the synaptic plasticity and memory impairments [A29] (herein incorporated by reference in its entirety). Basal synaptic transmission (BST) was similar between APP/PS1 and WT mice. We found no difference in BST among the 2 groups as previously shown in mice of this age [A29] (herein incorporated by reference in its entirety). Hippocampal slices were then perfused with TSA (1.65 μM) for 30 min before inducing LTP through tetanic stimulation of the Schaeffer collateral pathway. Potentiation in TSA treated APP/P S1 slices was far greater than in vehicle-treated APP/PS1 slices (FIG. 17). […] The observation that inspired these studies was the result of a series of experiments in which we tested whether a brief application of the HDAC inhibitor TSA was capable of rescuing the defect in LTP shown by slices from 3-4 month-old APP/PS1 mice (for a detailed description of the experiments showing the characterization of these mice [B50]; herein incorporated by reference in its entirety). At this age the transgenic mice just start showing the synaptic plasticity and memory impairments [B14, B50] (each herein incorporated by reference in its entirety)). […] (each herein incorporated by reference in its entirety), basal synaptic transmission (BST) was similar between APP/PS1 and WT mice. Hippocampal slices were then perfused with TSA (1.65 nM) for 30 min before inducing LTP through tetanic stimulation of the Schaeffer collateral pathway. Potentiation in TSA treated APP/PS1 slices was far greater than in vehicle-treated APP/PS1 slices (two-way ANOVA: F1,11=13.166, p=0.004; FIG. 17). […] Thus, HDAC inhibition is capable of rescuing the defect in LTP in the APP/PS1 animal model of Aβ deposition.

In the next assay the target is T1, CBP (Homo sapiens, UniProt Q92793).
T1 construct: we will use the catalytic domain of human CBP, PCAF, p300 and GCNS (Enzo Life Sci., USA); purchased Enzo Life Sci
T1 sequence (Q92793 1323-1700 limits assumed): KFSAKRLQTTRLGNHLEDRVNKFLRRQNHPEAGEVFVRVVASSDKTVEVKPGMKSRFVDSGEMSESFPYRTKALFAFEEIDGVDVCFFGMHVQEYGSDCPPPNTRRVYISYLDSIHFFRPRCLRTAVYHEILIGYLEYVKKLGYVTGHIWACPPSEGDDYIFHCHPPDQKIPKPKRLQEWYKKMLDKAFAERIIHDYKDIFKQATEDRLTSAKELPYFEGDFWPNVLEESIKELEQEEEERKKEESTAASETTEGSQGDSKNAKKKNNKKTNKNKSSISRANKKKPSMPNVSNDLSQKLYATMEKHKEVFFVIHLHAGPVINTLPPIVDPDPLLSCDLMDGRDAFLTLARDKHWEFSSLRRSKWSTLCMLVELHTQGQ
As to the kind of experiment: In vitro HAT activation assay, CBP. The class given is biochemical. An excerpt: Compounds will be tested for HAT activator activity first, using the HAT Assay kit from Active Motif (USA, CA). For this assay, we will use the catalytic domain of human CBP, PCAF, p300 and GCNS (Enzo Life Sci., USA). The catalytic domains for the remaining HATs will be produced using New England Biolabs K. lactis Protein Expression Kit. […] When assayed against all other HATs, they must show at least a 50 fold greater potency towards CBP and/or PCAF.

The target of a further assay is T2, HDAC10 (Homo sapiens, UniProt Q969S8).
T2 sequence (Q969S8 1-669): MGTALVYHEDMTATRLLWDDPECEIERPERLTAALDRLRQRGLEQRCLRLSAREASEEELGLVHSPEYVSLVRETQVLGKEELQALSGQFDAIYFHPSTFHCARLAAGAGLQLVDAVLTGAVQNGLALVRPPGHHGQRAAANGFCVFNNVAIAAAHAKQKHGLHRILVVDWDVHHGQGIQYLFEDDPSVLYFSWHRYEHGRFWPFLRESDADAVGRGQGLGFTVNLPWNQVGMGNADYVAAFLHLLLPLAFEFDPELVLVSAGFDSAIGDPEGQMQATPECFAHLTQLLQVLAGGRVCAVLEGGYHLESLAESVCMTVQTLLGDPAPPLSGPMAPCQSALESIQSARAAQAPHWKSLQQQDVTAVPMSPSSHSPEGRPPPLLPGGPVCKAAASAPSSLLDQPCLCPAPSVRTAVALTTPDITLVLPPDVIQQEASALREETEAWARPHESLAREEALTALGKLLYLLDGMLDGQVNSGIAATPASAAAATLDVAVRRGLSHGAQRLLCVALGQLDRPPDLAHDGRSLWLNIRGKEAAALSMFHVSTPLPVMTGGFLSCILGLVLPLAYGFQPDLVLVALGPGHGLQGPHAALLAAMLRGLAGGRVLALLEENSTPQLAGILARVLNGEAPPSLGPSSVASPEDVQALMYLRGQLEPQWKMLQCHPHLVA
Briefly: HDAC10 fluorogenic activity assay. The note with it: for % Activity: Repeat1/Repeat2, listed as OA2.

A further assay concerns YAC128 mice. As to the kind of experiment: Open field in YAC128 Huntington's Disease mice. Type of assay: in vivo. The note with it: for effect of treatment on total locomotion (distance traveled, 30 min): age 6 mo., YF2 5 mg/kg. As to the method:
Animals: Mouse models of Huntington's Disease (YAC128) versus wildtype (WT) littermates.
Open field: This assay is a common assay used to monitor total spontaneous locomotor activity and exploratory behavior in mouse models of Huntington's disease (HD). The spontaneous locomotor activity of the animals was measured using an automated photo-beam open-field system (Med-Associates, St Albans, Vt.). Mice were placed individually in the center of a clear open-field chamber (27.9 cm×27.9 cm×20 cm), and their horizontal and vertical activities were measured immediately for 30 min with three 16-beam UR arrays. Locomotor activity was assessed as the distance traveled in 5-min intervals. The number of mice typically used for open field range from 12 to 15 mice.

The target of a further assay is T3, HDAC7 (Homo sapiens, UniProt Q8WUI4).
T3 sequence (Q8WUI4 518-952 limits assumed): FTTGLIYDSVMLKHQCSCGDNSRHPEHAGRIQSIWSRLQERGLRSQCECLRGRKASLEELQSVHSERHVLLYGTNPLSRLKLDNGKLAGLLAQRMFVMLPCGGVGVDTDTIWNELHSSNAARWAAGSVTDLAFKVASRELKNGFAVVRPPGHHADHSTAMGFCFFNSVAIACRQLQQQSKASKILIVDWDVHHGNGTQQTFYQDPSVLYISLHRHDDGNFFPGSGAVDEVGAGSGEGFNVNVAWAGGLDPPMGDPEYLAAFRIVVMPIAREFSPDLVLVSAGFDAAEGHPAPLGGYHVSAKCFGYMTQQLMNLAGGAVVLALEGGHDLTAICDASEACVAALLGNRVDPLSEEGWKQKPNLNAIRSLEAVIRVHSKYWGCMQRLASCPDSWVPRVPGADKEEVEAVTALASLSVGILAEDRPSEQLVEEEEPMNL
As to the kind of experiment: HDAC7 fluorogenic activity assay. The note with it: Repeat1/Repeat2, listed as OA2.

With `CC(/C=C/C(=O)NO)=C\[C@@H](C)C(=O)c1ccc(N(C)C)cc1` [TSA, trichostatin A], the baseline transmission result in assay [1] (APP/PS1 and WT slices that received no tetanus) is listed as “did not affect”. Further, in assay [1] (WT slices, TSA perfused 30 min), the “amplitude of LTP in WT slices” value is on record as “did not change; also recorded: no effect”. In addition, in assay [1] (slices of 3-4 month-old APP/PS1 mice, TSA perfused 30 min before tetanus), the “potentiation (LTP) vs vehicle-treated APP/PS1 slices” value is recorded as “far greater; also recorded: reverses”.
Broadly, the EC50 is the concentration needed to bring the measured effect to its halfway point. The low end stands for an effect from little substance, the high end for a need for much substance. One may read the IC50 as the concentration at which inhibition is half-maximal. Lower therefore signals greater potency in that assay. For the compound `CCOc1cccc(OCCN(C)C)c1C(=O)Nc1ccc(Cl)c(C(F)(F)F)c1` [YF2], the response on CBP was half-maximal at 2700 nM (EC50). Also, on HDAC10, the half-inhibitory concentration (IC50) was above 200000 nM. The “% Activity” value at HDAC10 (OA2 Log[nM] 0.5) was 91.08% and 101.05%; at HDAC10 (OA2 Log[nM] 1.0) it was 103.77% and 104.31%; at HDAC10 (OA2 Log[nM] 1.5) it was 105.57% and 103.85%; at HDAC10 (OA2 Log[nM] 2.0), 103.04% and 105.77%; on HDAC10 (OA2 Log[nM] 2.5), 104.90% and 105.64%; on HDAC10 (OA2 Log[nM] 3.0), 99.94% and 104.64%. For the same compound, the “% Activity” value on HDAC10 (OA2 Log[nM] 3.5) is 96.95% and 106.25%; at HDAC10 (OA2 Log[nM] 4.0) it was 96.50% and 102.89%; at HDAC10 (OA2 Log[nM] 4.5) it was 95.38% and 102.89%; at HDAC10 (OA2 Log[nM] 5.3), 116.56% and 86.05%; on HDAC7 (OA2 Log[nM] 0.5), 103.11% and 97.69%; at HDAC7 (OA2 Log[nM] 1.0), 91.37% and 91.47%. In addition, the “% Activity” value at HDAC7 (OA2 Log[nM] 1.5) was 101.63% and 104.98%; at HDAC7 (OA2 Log[nM] 2.0), 104.61% and 97.68%; on HDAC7 (OA2 Log[nM] 2.5) it was 95.80% and 95.75%; at HDAC7 (OA2 Log[nM] 3.0) it was 96.02% and 98.69%; at HDAC7 (OA2 Log[nM] 3.5) it was 100.73% and 92.77%; on HDAC7 (OA2 Log[nM] 4.0), 90.73% and 101.73%. For the same compound, the “% Activity” value was 95.78% and 99.80% on HDAC7 (OA2 Log[nM] 4.5); 96.89% and 100.04% at HDAC7 (OA2 Log[nM] 5.3). The “effect of treatment on total rearing or vertical movements” value with YAC128 mice (female YAC128 mice) and in the assay with YAC128 mice (male YAC128 mice) was “no significant effect” each time. Also, the “effect of treatment on total locomotion (distance traveled, 30 min)” value in the assay on YAC128 mice (female mice) is recorded as “diminish significantly (i.e. worsen)”; with YAC128 mice (male mice), “no significant effect”.
